In patent US20060166994A1, “Method for treating renal failure” (priority 2003, published 2006):

Key:
[1] = 180-day mortality in heart failure patients with normal or impaired renal function (pooled levosimendan trials 3001021b and 3001030); assay type: in vivo, human; conditions: for 180-day mortality in levosimendan groups: heart failure patients, i.v. infusion 6 or 24 h
Description: In total, 701 heart failure patients from levosimendan trials 3001021b and 3001030 were included into the analysis to determine the effect of levosimendan on mortality in patients with normal or impaired renal function.
The study 3001021b compared levosimendan with dobutamine in a double-blind, parallel-group, randomised trial in 203 patients with low-output heart. Treatment with levosimendan (n=103) was started with a loading dose of 24 μg/kg infused over 10 minutes and followed by a continuous infusion of 0.1 μg/kg/min. For patients in whom the cardiac index had not increased by at least 30% compared with the baseline value at 2 hours, the dose was doubled to 0.2 μg/kg/min for levosimendan (n=69). Infusions were continued for totally 24 hours. Mortality was followed prospectively up to 31 days and retrospectively up to 180 days.
The study 3001030 evaluated the safety of levosimendan in patients with left ventricular failure after an acute myocardial infarction. The study was a placebo-controlled, double-blind, parallel-group, randomised, trial in 504 patients. Levosimendan was administered as a 10-minute loading dose followed by a continuous infusion for a total of 6 hours. The following doses were used: 6 μg/kg+0.1 μg/kg/min (n=103), 12 μg/kg+0.2 μg/kg/min (n=100), 24 μg/kg+0.2 μg/kg/min (n=99), 24 μg/kg+0.4 μg/kg/min (n=100) and similar placebo infusion (n=102). All-cause mortality was followed prospectively up to 14-days and retrospectively up to 180-days.
The patients combined from the above studies were classified according to their baseline renal function. The formula of Cockroft and Gault (Lafayette et al, 1997) was used to calculate the creatinine clearance (CLcr) values from the baseline serum creatinine) values as follows: [formula] [formula]

[2] = Elimination half-life of the active metabolite (II) in man; conditions: human, in vivo

| half-life [2] | Compound | Decrease in mortality versus control groups by renal function ([1]; 180-day, comparison of normal and impaired renal function) | 180-day mortality in levosimendan groups ([1]; mild renal impairment (CLcr 50-80 ml/min)) | 180-day mortality in levosimendan groups ([1]; normal renal function (CLcr > 80 ml/min)) |
| --- | --- | --- | --- | --- |
|  | CC1CC(=O)NN=C1c1ccc(NN=C(C#N)C#N)cc1 (single isomer, unassigned; (-)) [Levosimendan, (−)-enantiomer of [[4-(1,4,5,6-tetrahydro-4-methyl-6-oxo-3-pyridazinyl)phenyl]hydrazono]propanedinitrile] | decrease in mortality was highest in patients with impaired renal function | 18% | 15% |
| ~72 h | CC(=O)Nc1ccc(C2=NNC(=O)C[C@H]2C)cc1 [active metabolite (II), (R)-N-[4-(1,4,5,6-tetrahydro-4-methyl-6-oxo-3-pyridazinyl)phenyl]acetamide] |  |  |  |
